Source: patent publication US20030203373A1 (priority 2002, published 2003)
Several values for one entry are separate records, joined by “and”; a condition that tells them apart may be missing. Equal entries are not always repeated. Ends that are not written are not given here.

Target: T1, ACE from pig kidney (Sus scrofa, UniProt F1RRW5)
T1 construct: 1 mU ACE from pig kidney (EC 3.4.15.1 (Sigma)); purchased Sigma; host or cells: pig kidney (tissue-derived enzyme)
T1 sequence (F1RRW5 34-1309): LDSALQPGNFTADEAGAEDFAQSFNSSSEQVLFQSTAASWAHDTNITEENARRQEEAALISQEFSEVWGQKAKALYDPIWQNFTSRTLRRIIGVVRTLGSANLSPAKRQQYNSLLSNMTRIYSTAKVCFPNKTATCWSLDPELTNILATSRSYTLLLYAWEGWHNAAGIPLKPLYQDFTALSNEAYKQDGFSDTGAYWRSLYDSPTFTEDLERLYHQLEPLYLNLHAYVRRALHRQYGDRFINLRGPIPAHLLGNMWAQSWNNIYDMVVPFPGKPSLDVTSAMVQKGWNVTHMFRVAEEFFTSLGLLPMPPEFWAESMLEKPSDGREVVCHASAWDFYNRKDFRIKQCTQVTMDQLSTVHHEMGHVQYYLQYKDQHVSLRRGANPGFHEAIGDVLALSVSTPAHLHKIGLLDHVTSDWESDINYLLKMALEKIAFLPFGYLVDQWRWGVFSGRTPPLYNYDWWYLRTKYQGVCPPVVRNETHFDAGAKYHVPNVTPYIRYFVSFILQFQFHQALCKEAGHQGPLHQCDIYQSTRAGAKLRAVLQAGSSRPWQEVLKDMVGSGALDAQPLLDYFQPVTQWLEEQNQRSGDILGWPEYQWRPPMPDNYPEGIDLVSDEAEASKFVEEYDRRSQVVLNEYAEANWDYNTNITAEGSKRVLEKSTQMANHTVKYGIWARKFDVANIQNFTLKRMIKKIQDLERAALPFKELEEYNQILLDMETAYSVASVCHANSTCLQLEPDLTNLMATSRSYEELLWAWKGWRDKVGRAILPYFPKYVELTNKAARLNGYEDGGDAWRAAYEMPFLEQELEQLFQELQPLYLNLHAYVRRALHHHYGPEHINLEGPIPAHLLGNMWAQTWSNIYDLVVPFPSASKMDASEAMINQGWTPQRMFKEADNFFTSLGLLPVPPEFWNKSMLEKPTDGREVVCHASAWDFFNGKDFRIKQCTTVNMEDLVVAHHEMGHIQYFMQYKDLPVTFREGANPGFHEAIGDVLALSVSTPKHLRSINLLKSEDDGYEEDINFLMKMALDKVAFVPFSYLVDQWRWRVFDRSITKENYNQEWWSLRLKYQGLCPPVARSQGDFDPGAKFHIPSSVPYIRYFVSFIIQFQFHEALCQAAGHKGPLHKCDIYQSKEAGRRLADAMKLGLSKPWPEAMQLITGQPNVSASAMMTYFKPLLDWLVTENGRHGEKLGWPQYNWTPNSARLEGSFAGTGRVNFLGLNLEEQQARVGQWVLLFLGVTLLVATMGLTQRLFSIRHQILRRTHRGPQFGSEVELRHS
Assay: biochemical
Type: biochemical
Conditions: for IC50: ACE from pig kidney, determined graphically, read-out: IC50-value (ACE inhibition)
Text: These peptides were investigated for their inhibitory effect using an in vitro-ACE-inhibitor-assay with an angiotensin-converting-enzyme derived from pig kidney. Hippuryl-histidyl-leucin was used as a substrate. […] A concrete experimental description is given below.
The principle of the ACE-inhibition-assay was established by Chejung, H. S., Cushman, D. W.: “Inhibition of homogenous angiotensin converting enzyme of rabbit lung by synthetic venom peptides of Bothrops jararaca.” in Biochimica et Biophysica Acta 293, 451-563 (1973).
The assay was performed in 96 well HTRF-plates (Packard). The concentrations used for each well were:
1 mU ACE from pig kidney (EC 3.4.15.1 (Sigma)) in 30 μl of assay buffer (25 mM HEPES; 0,3 M NaCl, pH 8,2) and 20 μl inhibitor dissolved in assay buffer (0,35-200 μM). The reaction was started by adding 50 μl of 2 mM hippuryl-histidyl-leucin (Sigma) in assay buffer. The reaction was performed at room temperature (22° C.) for 30 minutes and terminated by adding 50 μl of 2 M NaOH. Afterwards 50 μl of 0,5% ortho-phtalaldehyd (Sigma) in methanol were added, 5 minutes later followed by 50 μl of 2,5 M HCl-solution to stabilize the developed fluorescence product.
The results were used to calculate the % inhibition. The IC50-values were determined graphically from a curve showing the dose-reaction ratio.
In order to minimize errors due to time-dependent differences, all pipetting steps were performed in a precise time schedule.

[1] = inhibitor 0.39 μM, replicates A-D
[2] = inhibitor 0.39 μM, replicates A-D, 0.39 µM
[3] = inhibitor 0.78125 μM, replicates A-D
[4] = inhibitor 0.78125 μM, replicates A-D, 0.78125 µM
[5] = inhibitor 1.5625 μM, replicates A-D
[6] = inhibitor 1.5625 μM, replicates A-D, 1.5625 µM
[7] = inhibitor 3.125 μM, replicates A-D
[8] = inhibitor 3.125 μM, replicates A-D, 3.125 µM
[9] = inhibitor 6.25 μM, replicates A-D
[10] = inhibitor 6.25 μM, replicates A-D, 6.25 µM
[11] = inhibitor 12.5 μM, replicates A-D
[12] = inhibitor 12.5 μM, replicates A-D, 12.5 µM
[13] = inhibitor 25 μM, replicates A-D
[14] = inhibitor 25 μM, replicates A-D, 25 µM
[15] = inhibitor 50 μM, replicates A-D
[16] = inhibitor 50 μM, replicates A-D, 50 µM
[17] = inhibitor 100 μM, replicates A-D
[18] = inhibitor 100 μM, replicates A-D, 100 µM
[19] = inhibitor 200 μM, replicates A-D
[20] = inhibitor 200 μM, replicates A-D, 200 µM

| Substance | IC50 | fluorescence reading (ACE Inhibitor Assay) [1] | % inhibition (ACE Inhibitor Assay) [2] | fluorescence reading (ACE Inhibitor Assay) [3] | % inhibition (ACE Inhibitor Assay) [4] | fluorescence reading (ACE Inhibitor Assay) [5] | % inhibition (ACE Inhibitor Assay) [6] | fluorescence reading (ACE Inhibitor Assay) [7] | inhibition at 3.125 µM [7] | % inhibition (ACE Inhibitor Assay) [8] | fluorescence reading (ACE Inhibitor Assay) [9] | inhibition at 6.25 µM [9] | % inhibition (ACE Inhibitor Assay) [10] | fluorescence reading (ACE Inhibitor Assay) [11] | inhibition at 12.5 µM [11] | % inhibition (ACE Inhibitor Assay) [12] | fluorescence reading (ACE Inhibitor Assay) [13] | inhibition at 25 µM [13] | % inhibition (ACE Inhibitor Assay) [14] | fluorescence reading (ACE Inhibitor Assay) [15] | also measured |
| --- | --- | --- | --- | --- | --- | --- | --- | --- | --- | --- | --- | --- | --- | --- | --- | --- | --- | --- | --- | --- | --- |
| PLPEVPP [Peptide S548, PLPEVPP] | 21 µM | 850082 and 861072 and 990310 and 812986 | 5,85% and 4,63% and −9,77% and 9,98% | 736956 and 848448 and 878121 and 787559 | 18,46% and 6,03% and 2,73% and 12,82% | 672595 and 802519 and 857919 and 773857 | 25,63% and 11,15% and 4,98% and 14,35% | 735840 and 756404 and 788637 and 719509 | 18.6% | 16,29% and 12,7% and 20,4% | 644083 and 676136 and 699343 and 628007 | 28.8% | 25,23% and 22,65% and 30,6% | 668264 and 582524 and 619407 and 572641 | 37.2% | 35,66% and 31,55% and 36,76% | 411233 and 394114 and 413347 and 402465 | 54.8% | 56,66% and 54,52% and 55,73% | 291507 and 326054 and 343249 and 278402 | inhibition at 50 µM [15]: 68.1%; % inhibition (ACE Inhibitor Assay) [16]: 64,24% and 62,33% and 69,55%; fluorescence reading (ACE Inhibitor Assay) [17]: 181416 and 194177 and 204171 and 168452; inhibition at 100 µM [17]: 80.4%; % inhibition (ACE Inhibitor Assay) [18]: 78,94% and 77,82% and 81,8%; fluorescence reading (ACE Inhibitor Assay) [19]: 108115 and 108968 and 113955 and 101322; inhibition at 200 µM [19]: 88.5%; % inhibition (ACE Inhibitor Assay) [20]: 88,43% and 87,87% and 89,28% |
| EAGAALSPLPEVPP [Peptide S542] | 38 µM | 930945 and 967806 and 1003456 and 906307 | 4.59% and 0.79% and −2.87% and 7.13% | 910838 and 902555 and 939597 and 880680 | 6.66% and 7.52% and 3.7% and 9.77% | 794214 and 874684 and 882788 and 794177 | 10.39% and 9.55% | 821478 and 820849 and 868901 and 796263 | 15.9% | 15.93% and 10.98% and 18.47% | 801078 and 799975 and 802324 and 795040 | 18% | 18.08% and 17.84% and 18.59% | 719799 and 744223 and 765229 and 709216 | 26.3% | 23.83% and 21.66% and 27.43% | 609106 and 591988 and 618193 and 569641 | 37.8% | 39.51% and 36.81% and 41.81% | 424530 and 419325 and 440093 and 406539 | inhibition at 1.5625 µM [5]: 18.7%; inhibition at 50 µM [15]: 56.8%; % inhibition (ACE Inhibitor Assay) [16]: 57.3% and 55.16% and 58.61%; fluorescence reading (ACE Inhibitor Assay) [17]: 273140 and 278465 and 286263 and 274375; inhibition at 100 µM [17]: 72.3%; % inhibition (ACE Inhibitor Assay) [18]: 71.8% and 71% and 72.23%; fluorescence reading (ACE Inhibitor Assay) [19]: 167517 and 173807 and 184836 and 169891; inhibition at 200 µM [19]: 83.2%; % inhibition (ACE Inhibitor Assay) [20]: 82.59% and 81.45% and 82.99% |
